Assay results published in publication PMC6178619, “Arylvinylpiperazine Amides, a New Class of Potent Inhibitors Targeting QcrB of Mycobacterium tuberculosis” (mBio, 2018).

Experiments:
Assay type in all cases: cell-based, Mycobacterium tuberculosis
[1] = system: AX-resistant mutants of M. tuberculosis H37Rv
[2] = system: H37Rv Δcyd KO with a QcrB(A317V) mutation
[3] = system: Q203-resistant strain of M. tuberculosis H37Rv (QcrB T313A)
[4] = system: AX-resistant mutants of M. tuberculosis H37Rv (QcrB S182P, M342V, M342I)
[5] = system: LPZS-resistant strain of M. tuberculosis H37Rv (QcrB L176P)

Row | Structure (SMILES) | Intracellular ATP level [1] | OCR change from basal on compound addition [2] | Cross-resistance [3] | Increase in MIC compared to parental strain H37Rv [4] [fold] | Cross-resistance [5]
1 | COc1nc2ccc(Br)cc2cc1[C@@H](c1ccccc1)[C@@](O)(CCN(C)C)c1cccc2ccccc12 [BDQ, bedaquiline, reference compound] | depleted |  |  |  | 
2 | O=C(/C=C/c1cccs1)N1CCN(Cc2ccc3c(c2)OCO3)CC1 [AX-35, (E)-1-(4-(Benzo[d][1,3]dioxol-5-ylmethyl)piperazin-1-yl)-3-(thiophen-2-yl)prop-2-en-1-one] | essentially unaffected | decreases | cross-resistant | 50 | cross-resistant
3 | O=C(/C=C/c1ccsc1)N1CCN(Cc2ccc3c(c2)OCO3)CC1 [AX-36, (E)-1-(4-(Benzo[d][1,3]dioxol-5-ylmethyl)piperazin-1-yl)-3-(thiophen-3-yl)prop-2-en-1-one] | essentially unaffected |  | cross-resistant | 50 | cross-resistant
4 | CCc1nc2ccc(Cl)cn2c1C(=O)NCc1ccc(N2CCC(c3ccc(OC(F)(F)F)cc3)CC2)cc1 [Compound Q203, reference compound] | depleted | unaffected |  |  | 
